How the values were obtained:
[1] = Cytotoxicity against human HL-60(TB) cells assessed as cell growth at 10^-8 M after 24 hrs by SRB assay; type: functional; conditions: HL-60, 24 h, read-out: Activity
MDA-MB-231 = test: Cytotoxicity against human MDA-MB-231 cells assessed as cell growth at 10^-4 M after 24 hrs by SRB assay; type: functional; conditions: MDA-MB-231, 24 h, read-out: Activity
A498 [2] = test: Cytotoxicity against human A498 cells assessed as cell growth at 10^-4 M after 24 hrs by SRB assay; type: functional; conditions: A498, 24 h, read-out: Activity
[3] = Cytotoxicity against human HCT116 cells assessed as cell growth at 10^-7 M after 24 hrs by SRB assay; type: functional; conditions: HCT-116, 24 h, read-out: Activity
[4] = Cytotoxicity against human Caki1 cells after 24 hrs by SRB assay; type: functional; conditions: CAKI-1, 24 h
NCI-H460 = test: Cytotoxicity against human NCI-H460 cells assessed as cell growth at 10^-7 M after 24 hrs by SRB assay; type: functional; conditions: NCI-H460, 24 h, read-out: Activity
[5] = Cytotoxicity against human HCC2998 cells assessed as cell growth at 10^-5 M after 24 hrs by SRB assay; type: functional; conditions: HCC 2998, 24 h, read-out: Activity
SR [6] = test: Cytotoxicity against human SR cells assessed as cell growth at 10^-7 M after 24 hrs by SRB assay; type: functional; conditions: read-out: Activity
SK-MEL-28 = test: Cytotoxicity against human SK-MEL-28 cells assessed as cell growth at 10^-4 M after 24 hrs by SRB assay; type: functional; conditions: SK-MEL-28, 24 h, read-out: Activity
SN12C = test: Cytotoxicity against human SN12C cells assessed as cell growth at 10^-6 M after 24 hrs by SRB assay; type: functional; conditions: read-out: Activity
NCI-H23 = test: Cytotoxicity against human NCI-H23 cells assessed as cell growth at 10^-4 M after 24 hrs by SRB assay; type: functional; conditions: NCI-H23, 24 h, read-out: Activity
HT-29 = test: Cytotoxicity against human HT-29 cells assessed as cell growth at 10^-8 M after 24 hrs by SRB assay; type: functional; conditions: HT-29, 24 h, read-out: Activity
ACHN = test: Cytotoxicity against human ACHN cells after 24 hrs by SRB assay; type: functional
A498 [7] = test: Cytotoxicity against human A498 cells assessed as cell growth at 10^-6 M after 24 hrs by SRB assay; type: functional; conditions: A498, 24 h, read-out: Activity
CCRF-CEM = test: Cytotoxicity against human CCRF-CEM cells assessed as cell growth at 10^-7 M after 24 hrs by SRB assay; type: functional; conditions: read-out: Activity
[8] = Cytotoxicity against human OVCAR4 cells assessed as cell growth at 10^-5 M after 24 hrs by SRB assay; type: functional; conditions: OVCAR-4, 24 h, read-out: Activity
[9] = Cytotoxicity against human SW620 cells assessed as cell growth at 10^-6 M after 24 hrs by SRB assay; type: functional; conditions: SW-620, 24 h, read-out: Activity
SK-MEL-5 = test: Cytotoxicity against human SK-MEL-5 cells assessed as cell growth at 10^-6 M after 24 hrs by SRB assay; type: functional; conditions: SK-MEL-5, 24 h, read-out: Activity
[10] = Cytotoxicity against human Hs 578T cells assessed as cell growth at 10^-8 M after 24 hrs by SRB assay; type: functional; conditions: read-out: Activity
[11] = Cytotoxicity against human IGROV1 cells assessed as cell growth at 10^-7 M after 24 hrs by SRB assay; type: functional; conditions: IGROV-1, 24 h, read-out: Activity
[12] = Cytotoxicity against human SF268 cells assessed as cell growth at 10^-6 M after 24 hrs by SRB assay; type: functional; conditions: SF-268, 24 h, read-out: Activity
[13] = Cytotoxicity against human IGROV1 cells assessed as cell growth at 10^-4 M after 24 hrs by SRB assay; type: functional; conditions: IGROV-1, 24 h, read-out: Activity
[14] = Cytotoxicity against human NCI-ADR-RES cells assessed as cell growth at 10^-7 M after 24 hrs by SRB assay; type: functional; conditions: read-out: Activity
[15] = Cytotoxicity against human HCT15 cells assessed as cell growth at 10^-6 M after 24 hrs by SRB assay; type: functional; conditions: HCT-15, 24 h, read-out: Activity
KM12 = test: Cytotoxicity against human KM12 cells assessed as cell growth at 10^-7 M after 24 hrs by SRB assay; type: functional; conditions: KM12, 24 h, read-out: Activity
[16] = Cytotoxicity against human RXF393 cells assessed as cell growth at 10^-4 M after 24 hrs by SRB assay; type: functional; conditions: RXF 393, 24 h, read-out: Activity
Malme-3M [17] = test: Cytotoxicity against human MALME-3M cells after 24 hrs by SRB assay; type: functional, cell-based
[18] = Cytotoxicity against human RXF393 cells assessed as cell growth at 10^-8 M after 24 hrs by SRB assay; type: functional; conditions: RXF 393, 24 h, read-out: Activity
U-251 = test: Cytotoxicity against human U251 cells assessed as cell growth at 10^-5 M after 24 hrs by SRB assay; type: functional; conditions: U-251, 24 h, read-out: Activity
Malme-3M [19] = test: Cytotoxicity against human MALME-3M cells assessed as cell growth at 10^-4 M after 24 hrs by SRB assay; type: functional; conditions: read-out: Activity
M14 = test: Cytotoxicity against human M14 cells after 24 hrs by SRB assay; type: functional, cell-based; conditions: M14, 24 h
[20] = Cytotoxicity against human HOP92 cells assessed as cell growth at 10^-4 M after 24 hrs by SRB assay; type: functional; conditions: HOP-92, 24 h, read-out: Activity
A549 = test: Cytotoxicity against human A549 cells assessed as cell growth at 10^-8 M after 24 hrs by SRB assay; type: functional; conditions: A549, 24 h, read-out: Activity
[21] = Cytotoxicity against human BT549 cells assessed as cell growth at 10^-5 M after 24 hrs by SRB assay; type: functional; conditions: BT-549, 24 h, read-out: Activity
NCI-H522 = test: Cytotoxicity against human NCI-H522 cells assessed as cell growth at 10^-6 M after 24 hrs by SRB assay; type: functional; conditions: NCI-H522, 24 h, read-out: Activity
SR [22] = test: Cytotoxicity against human SR cells assessed as growth inhibition at 10 uM after 24 hrs by SRB assay; type: functional; conditions: read-out: GI
[23] = Cytotoxicity against human PC3 cells assessed as growth inhibition at 10 uM after 24 hrs by SRB assay; type: functional; conditions: PC-3, 24 h, read-out: GI
[24] = read-out: LC50 (the source's name)
[25] = read-out: pLC50 (the source's name) (converted)

With `O=C(Nc1cc(-c2cccnc2)nc(NCCCN2CCOCC2)n1)c1cc(Br)cc(C(F)(F)F)c1` the growth at 0.01 µM [1] was 100%, the growth at 100 µM (MDA-MB-231) was -84% and the growth at 100 µM (A498 [2]) was -91%. It also gave a growth at 0.1 µM [3] of 107%, a GI50 ([4]; read-out: GI50) of 2.53 µM and a CC50 [4, 24] of 32.8 µM. It also gave a TGI ([4]; read-out: TGI) of 10.7 µM, a GI50 ([4]; read-out: pGI50 (converted)) of 2.51 µM and a CC50 [4, 25] of 33.1 µM. The TGI ([4]; read-out: pTGI (converted)) was 10.7 µM, the growth at 0.1 µM (NCI-H460) was 100% and the growth at 10 µM [5] was -77%. For the same molecule, the growth at 0.1 µM (SR [6]) was 106%, the growth at 100 µM (SK-MEL-28) was -77% and the growth at 1 µM (SN12C) was 101%. For the same molecule, the growth at 100 µM (NCI-H23) was -85%, the growth at 0.01 µM (HT-29) was 100% and the GI50 (ACHN; read-out: GI50) was 3.04 µM. The CC50 (ACHN; [24]) was 44.6 µM, the TGI (ACHN; read-out: TGI) was 11.3 µM and the GI50 (ACHN; read-out: pGI50 (converted)) was 3.02 µM. For the same molecule, the CC50 (ACHN; [25]) was 44.7 µM, the TGI (ACHN; read-out: pTGI (converted)) was 11.2 µM and the growth at 1 µM (A498 [7]) was 92%. The growth at 0.1 µM (CCRF-CEM) was 105%, the growth at 10 µM [8] was 18% and the growth at 1 µM [9] was 95%. It also gave a growth at 1 µM (SK-MEL-5) of 91%, a growth at 0.01 µM [10] of 93% and a growth at 0.1 µM [11] of 108%. It also gave a growth at 1 µM [12] of 85%, a growth at 100 µM [13] of -72% and a growth at 0.1 µM [14] of 99%. The growth at 1 µM [15] was 82%, the growth at 0.1 µM (KM12) was 99% and the growth at 100 µM [16] was -86%. It also gave an IC50 (Malme-3M [17]) of 1.76 µM, a GI50 (Malme-3M [17]; read-out: GI50) of 1.76 µM and a CC50 (Malme-3M [17]; [24]) of 7.28 µM. It also gave a TGI (Malme-3M [17]; read-out: TGI) of 3.58 µM, a GI50 (Malme-3M [17]; read-out: pGI50 (converted)) of 1.78 µM and a CC50 (Malme-3M [17]; [25]) of 7.24 µM. It also gave a TGI (Malme-3M [17]; read-out: pTGI (converted)) of 3.55 µM, a growth at 0.01 µM [18] of 99% and a growth at 10 µM (U-251) of -57%. For the same molecule, the growth at 100 µM (Malme-3M [19]) was -78%, the GI50 (M14) was 1.66 µM and the CC50 (M14; [24]) was 6.59 µM. It also gave a TGI (M14; read-out: TGI) of 3.32 µM, a CC50 (M14; [25]) of 6.61 µM and a TGI (M14; read-out: pTGI (converted)) of 3.31 µM. For the same molecule, the growth at 100 µM [20] was -94%, the growth at 0.01 µM (A549) was 110% and the growth at 10 µM [21] was 19%. It also gave a growth at 1 µM (NCI-H522) of 83%.

Work on `COc1cc(OC)cc(C(=O)Nc2cc(-c3cccnc3)nc(NCCCN3CCOCC3)n2)c1` yielded an inhibition of growth at 10 µM (SR [22]) of 42.1%.

Work on `COCCCNc1nc(NC(=O)c2cc(Br)cc(C(F)(F)F)c2)cc(-c2cccnc2)n1` yielded an inhibition of growth at 10 µM [23] of 29.4%.

— ChEMBL document CHEMBL3774345, “Synthesis of new diarylamides with pyrimidinyl pyridine scaffold and evaluation of their anti-proliferative effect on cancer cell lines” (Bioorg Med Chem Lett, 2016)
